According to PubChem BioAssay AID2060504 (Molecular Pharmacology Branch, DTP, NCI, 2025):

Tested on: 636577-100-R-J1-PDC complex spheroid viability
Test: Anticancer human tumor 636577-100-R-J1-PDC patient-derived endometrial adenocarcinoma cell line growth inhibition [GQUAD]
Details: for IC50: curve of first compound; for viability, T/C: stronger effect = lower value
Summary of the method: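 Viability of tumor cells grown as complex spheroids with endothelial and stromal cells, exposed to drug combinations. Top concentration at or near clinical Cmax (else 10 microM), diluted in half-log increments.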

[1] = second compound 0.0316 µM, first compound 0.0316 µM
[2] = second compound 0.0316 µM, first compound 0.316 µM
[3] = second compound 0.1 µM, first compound 0.0316 µM
[4] = second compound 0.1 µM, first compound 0.316 µM
[5] = second compound 0.316 µM, first compound 0.0316 µM
[6] = second compound 0.316 µM, first compound 0.316 µM
[7] = second compound 1 µM, first compound 0.0316 µM
[8] = second compound 1 µM, first compound 0.316 µM
[9] = second compound 3.16 µM, first compound 0.0316 µM
[10] = second compound 3.16 µM, first compound 0.316 µM
[11] = second compound 10 µM, first compound 0.0316 µM
[12] = second compound 10 µM, first compound 0.316 µM
[13] = second compound 0.0316 µM, first compound 0.1 µM
[14] = second compound 0.0316 µM, first compound 1 µM
[15] = second compound 0.0316 µM, first compound 3.16 µM
[16] = second compound 0.0316 µM, first compound 10 µM
[17] = second compound 0.1 µM, first compound 0.1 µM
[18] = second compound 0.1 µM, first compound 1 µM
[19] = second compound 0.1 µM, first compound 3.16 µM
[20] = second compound 0.1 µM, first compound 10 µM
[21] = second compound 0.316 µM, first compound 0.1 µM
[22] = second compound 0.316 µM, first compound 1 µM
[23] = second compound 0.316 µM, first compound 3.16 µM
[24] = second compound 0.316 µM, first compound 10 µM
[25] = second compound 1 µM, first compound 0.1 µM
[26] = second compound 1 µM, first compound 1 µM
[27] = second compound 1 µM, first compound 3.16 µM
[28] = second compound 1 µM, first compound 10 µM
[29] = second compound 3.16 µM, first compound 0.1 µM
[30] = second compound 3.16 µM, first compound 1 µM
[31] = second compound 3.16 µM, first compound 3.16 µM
[32] = second compound 3.16 µM, first compound 10 µM
[33] = second compound 10 µM, first compound 0.1 µM
[34] = second compound 10 µM, first compound 1 µM
[35] = second compound 10 µM, first compound 3.16 µM
[36] = second compound 10 µM, first compound 10 µM
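Note: viability read after seven days of drug exposure.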
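Throughout, for viability, T/C: luminescence signal used as a proxy for viable cells; 100% = DMSO vehicle control wells.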

Cn1ncnc1[C@H]1c2n[nH]c(=O)c3cc(F)cc(c23)N[C@@H]1c1ccc(F)cc1 + Cc1[nH]c2ccc(F)cc2c1-c1nc2c3cccnc3c3ncccc3c2[nH]1
IC50 (second compound 0.0316 µM): 0.0293 µM
IC50 (second compound 0.1 µM): 0.0777 µM
IC50 (second compound 0.316 µM): 0.0345 µM
IC50 (second compound 1 µM): 0.0827 µM
IC50 (second compound 3.16 µM): < 0.000999 µM
IC50 (second compound 10 µM): 0.0866 µM
viability, T/C (second compound 0.0316 µM, first compound 0.000999 µM): 49.4%
viability, T/C (second compound 0.0316 µM, first compound 0.00316 µM): 88%
viability, T/C (second compound 0.0316 µM, first compound 0.00999 µM): 94.7%
viability, T/C [1]: 48%
viability, T/C (second compound 0.0316 µM, first compound 0.0999 µM): 46.8%
viability, T/C [2]: 39.2%
viability, T/C (second compound 0.1 µM, first compound 0.000999 µM): 82.3%
viability, T/C (second compound 0.1 µM, first compound 0.00316 µM): 110%
viability, T/C (second compound 0.1 µM, first compound 0.00999 µM): 85%
viability, T/C [3]: 59%
viability, T/C (second compound 0.1 µM, first compound 0.0999 µM): 54.2%
viability, T/C [4]: 30.8%
viability, T/C (second compound 0.316 µM, first compound 0.000999 µM): 64.6%
viability, T/C (second compound 0.316 µM, first compound 0.00316 µM): 102%
viability, T/C (second compound 0.316 µM, first compound 0.00999 µM): 68.7%
viability, T/C [5]: 51.8%
viability, T/C (second compound 0.316 µM, first compound 0.0999 µM): 50.9%
viability, T/C [6]: 35.7%
viability, T/C (second compound 1 µM, first compound 0.000999 µM): 35.3%
viability, T/C (second compound 1 µM, first compound 0.00316 µM): 76.3%
viability, T/C (second compound 1 µM, first compound 0.00999 µM): 63.1%
viability, T/C [7]: 68.7%
viability, T/C (second compound 1 µM, first compound 0.0999 µM): 47.9%
viability, T/C [8]: 38.4%
viability, T/C (second compound 3.16 µM, first compound 0.000999 µM): 36%
viability, T/C (second compound 3.16 µM, first compound 0.00316 µM): 36.9%
viability, T/C (second compound 3.16 µM, first compound 0.00999 µM): 43.2%
viability, T/C [9]: 37.5%
viability, T/C (second compound 3.16 µM, first compound 0.0999 µM): 35.5%
viability, T/C [10]: 25.3%
viability, T/C (second compound 10 µM, first compound 0.000999 µM): 62.5%
viability, T/C (second compound 10 µM, first compound 0.00316 µM): 47%
viability, T/C (second compound 10 µM, first compound 0.00999 µM): 62.2%
viability, T/C [11]: 57.9%
viability, T/C (second compound 10 µM, first compound 0.0999 µM): 46.5%
viability, T/C [12]: 36.4%

CC(C)(O)C1CCC(Nc2ccc3ncc(-c4cccc(C(F)(F)F)c4)n3n2)CC1 (stereo unspecified) + Cc1[nH]c2ccc(F)cc2c1-c1nc2c3cccnc3c3ncccc3c2[nH]1
IC50 (second compound 0.0316 µM): 1.09 µM
IC50 (second compound 0.1 µM): 0.981 µM
IC50 (second compound 0.316 µM): 1.77 µM
IC50 (second compound 1 µM): 1.88 µM
IC50 (second compound 3.16 µM): < 0.0316 µM
IC50 (second compound 10 µM): < 0.0316 µM
viability, T/C [1]: 92.8%
viability, T/C [13]: 75.9%
viability, T/C [2]: 111%
viability, T/C [14]: 51.3%
viability, T/C [15]: 35.5%
viability, T/C [16]: 32.2%
viability, T/C [3]: 90.7%
viability, T/C [17]: 79.1%
viability, T/C [4]: 84.4%
viability, T/C [18]: 49%
viability, T/C [19]: 33.1%
viability, T/C [20]: 26.2%
viability, T/C [5]: 60.9%
viability, T/C [21]: 54.6%
viability, T/C [6]: 82.9%
viability, T/C [22]: 62.5%
viability, T/C [23]: 34.6%
viability, T/C [24]: 39.9%
viability, T/C [7]: 69%
viability, T/C [25]: 78%
viability, T/C [8]: 69.5%
viability, T/C [26]: 69.8%
viability, T/C [27]: 33.7%
viability, T/C [28]: 23.5%
viability, T/C [9]: 20.1%
viability, T/C [29]: 28.1%
viability, T/C [10]: 31.1%
viability, T/C [30]: 26.1%
viability, T/C [31]: 16.2%
viability, T/C [32]: 13.1%
viability, T/C [11]: 31.6%
viability, T/C [33]: 34.1%
viability, T/C [12]: 39%
viability, T/C [34]: 37.8%
viability, T/C [35]: 17.1%
viability, T/C [36]: 15.1%

CC(C)(O)C1CCC(Nc2ccc3ncc(-c4cccc(C(F)(F)F)c4)n3n2)CC1 (stereo unspecified) + CN(C)c1ccc(Nc2c3ccc(NC(=O)CCN4CCCC4)cc3nc3cc(NC(=O)CCN4CCCC4)ccc23)cc1
IC50 (second compound 0.0316 µM): 2.08 µM
IC50 (second compound 0.1 µM): 1.45 µM
IC50 (second compound 0.316 µM): 1.58 µM
IC50 (second compound 1 µM): 1.52 µM
IC50 (second compound 3.16 µM): < 0.0316 µM
IC50 (second compound 10 µM): < 0.0316 µM
viability, T/C [1]: 107%
viability, T/C [13]: 82%
viability, T/C [2]: 104%
viability, T/C [14]: 77.6%
viability, T/C [15]: 34.6%
viability, T/C [16]: 33.8%
viability, T/C [3]: 83.9%
viability, T/C [17]: 59.2%
viability, T/C [4]: 109%
viability, T/C [18]: 57.8%
viability, T/C [19]: 30%
viability, T/C [20]: 37.2%
viability, T/C [5]: 69.3%
viability, T/C [21]: 57.9%
viability, T/C [6]: 96.7%
viability, T/C [22]: 63.6%
viability, T/C [23]: 30.6%
viability, T/C [24]: 28.1%
viability, T/C [7]: 77.2%
viability, T/C [25]: 54.1%
viability, T/C [8]: 66.5%
viability, T/C [26]: 63.6%
viability, T/C [27]: 26.4%
viability, T/C [28]: 22.2%
viability, T/C [9]: 41.3%
viability, T/C [29]: 46.2%
viability, T/C [10]: 40.6%
viability, T/C [30]: 33.5%
viability, T/C [31]: 15.8%
viability, T/C [32]: 9.06%
viability, T/C [11]: 5.85%
viability, T/C [33]: 5.51%
viability, T/C [12]: 5.56%
viability, T/C [34]: 4.55%
viability, T/C [35]: 1.2%
viability, T/C [36]: 0.47%
